Experimental data: patent US12415815B2, “Pyrido[2,3-e]oxazine derivatives as agricultural chemicals” (GLOBACHEM NV, priority 2020, dated 2025)
Converted amounts (≈) assume the structure as drawn.

How the values were obtained:
Assay type in all cases: cell-based
Alternaria alternata = assay: Fungicidal activity screen in amended agar, 96 well plates, Alternaria alternata; conditions: Medium N agar, 1,000 spores/mL, 20, 2, 0.2 and 0.02 ppm, room temperature (18° C.), assessed after 3 to 4 days, read-out: Alternaria (fungal growth vs DMSO controls, EC50 ranking)
Protocol: (§1) Compounds were screened in 96 well plates with 10 compounds per plate. Each compound was screened using agar amended to 20, 2, 0.2 and 0.02 ppm of the test material. Proline at 50 and 10 ppm and 0.2% DMSO were used respectively as positive and negative controls. Each test concentration and standard were tested twice on a plate.
(§2) Compounds were screened against the following three fungal pathogens—Botrytis cinerea, Alternaria alternata and Zymoseptoria tritici. The agar used in the test varied depending on the pathogen with Medium N used for B. cinerea and A. alternata and 1% potato dextrose agar for Z. tritici. For each pathogen sufficient spores were added to the appropriate agar to give 1,000 spores/mL agar of A. alternata, 5,000 spores/ml agar of B. cinerea and 10,000 spores/mL agar of Z. tritici.
(§3) A ×10 stock solution in 2% DMSO was produced for each dose i.e. 200, 20, 2 and 0.2 ppm, and 10 μl of this added to the appropriate wells on the plate. An equivalent amount of 2% DMSO and Proline stock at 500 and 100 ppm were added for the controls. To each well, 90 μl of the appropriate agar spore suspension was added to give the final well concentrations outlined in the first paragraph.
(§4) Plates were incubated at room temperature (18° C.) and assessed after: • a) 3 to 4 days A. alternata and B. cinerea • b) 7 days for Z. tritici
(§5) The amount of fungal growth in each well was compared to the DMSO controls and scored according to the following key: • A—EC50<2 ppm • B—2≤EC50<20 • C—EC50≥20 • D—No activity detected at the highest dose tested • NT—Not tested

Zymoseptoria tritici = assay: Fungicidal activity screen in amended agar, 96 well plates, Zymoseptoria tritici; conditions: Zymoseptoria tritici, 168 h; 1% potato dextrose agar, 10,000 spores/mL, 20, 2, 0.2 and 0.02 ppm, room temperature (18° C.), assessed after 7 days; read-out: Zymoseptoria (fungal growth vs DMSO controls, EC50 ranking)
Protocol: as §1, §2, §3, §4, §5

Botrytis cinerea = assay: Fungicidal activity screen in amended agar, 96 well plates, Botrytis cinerea; conditions: Medium N agar, 5,000 spores/ml, 20, 2, 0.2 and 0.02 ppm, room temperature (18° C.), assessed after 3 to 4 days, read-out: Botrytis (fungal growth vs DMSO controls, EC50 ranking)
Protocol: as §1, §2, §3, §4, §5

| SMILES | EC50 (Alternaria alternata) [µg/mL] | EC50 (Zymoseptoria tritici) [µg/mL] | EC50 (Botrytis cinerea) [µg/mL] |
| --- | --- | --- | --- |
| COc1ccnc2c(=O)n(-c3nc4ccc(Oc5cccc(Cl)c5)cc4s3)c(=S)oc12 [Example 9, 3-(6-(3-Chlorophenoxy)benzo[d]thiazol-2-yl)-8-methoxy-2-thioxo-2,3-dihydro-4H-pyrido[2,3-e][1,3]oxazin-4-one] | 2 to 20 (≈ 4.26 to 42.6 µM) | < 2 | 2 to 20 (≈ 4.26 to 42.6 µM) |
| COc1ccnc2c(=O)n(-c3nc4ccc(Oc5ccccc5Cl)cc4s3)c(=O)oc12 [Example 5, 3-(6-(2-Chlorophenoxy)benzo[d]thiazol-2-yl)-8-methoxy-2H-pyrido[2,3-e][1,3]oxazine-2,4(3H)-dione] | 2 to 20 (≈ 4.41 to 44.1 µM) | < 2 | 2 to 20 (≈ 4.41 to 44.1 µM) |
| COc1ccnc2c(=O)n(-c3nc4ccc(Cc5ccc(F)cc5Cl)cc4s3)c(=S)oc12 [Example 28, 3-(6-(2-Chloro-4-fluorobenzyl)benzo[d]thiazol-2-yl)-8-methoxy-2-thioxo-2,3-dihydro-4H-pyrido[2,3-e][1,3]oxazin-4-one] | 2 to 20 (≈ 4.12 to 41.2 µM) | < 2 | 2 to 20 (≈ 4.12 to 41.2 µM) |
| COc1ccnc2c(=O)n(-c3nc4ccc(Oc5cncc(Cl)c5)cc4s3)c(=S)oc12 [Example 7, 3-(6-((5-Chloropyridin-3-yl)oxy)benzo[d]thiazol-2-yl)-8-methoxy-2-thioxo-2,3-dihydro-4H-pyrido[2,3-e][1,3]oxazin-4-one] | 2 to 20 (≈ 4.25 to 42.5 µM) | < 2 | 2 to 20 (≈ 4.25 to 42.5 µM) |
| COc1ccnc2c(=O)n(-c3nc4ccc(Oc5ccc(C(F)(F)F)cc5Cl)nc4s3)c(=S)oc12 [Example 48, 3-(5-(2-chloro-4-(trifluoromethyl)phenoxy)thiazolo[5,4-b]pyridin-2-yl)-8-methoxy-2-thioxo-2,3-dihydro-4H-pyrido[2,3-e][1,3]oxazin-4-one] | ≥ 20 | < 2 | ≥ 20 |
| COc1ccnc2c(=O)n(-c3nc4ccc(Oc5cncc(C(F)(F)F)c5)cc4s3)c(=S)oc12 [Example 8, 8-Methoxy-2-thioxo-3-(6-((5-(trifluoromethyl)pyridin-3-yl)oxy)benzo[d]thiazol-2-yl)-2,3-dihydro-4H-pyrido[2,3-e][1,3]oxazin-4-one] | 2 to 20 (≈ 3.96 to 39.6 µM) | < 2 | 2 to 20 (≈ 3.96 to 39.6 µM) |
| COc1ccnc2c(=O)n(-c3nc4ccc(Oc5ccc(F)cc5)cc4s3)c(=O)oc12 [Example 3, 3-(6-(4-Fluorophenoxy)benzo[d]thiazol-2-yl)-8-methoxy-2H-pyrido[2,3-e][1,3]oxazine-2,4(3H)-dione] | 2 to 20 (≈ 4.57 to 45.7 µM) | < 2 | 2 to 20 (≈ 4.57 to 45.7 µM) |
| COc1ccnc2c(=O)n(-c3nc4ccc(Cc5ccccc5Cl)cc4s3)c(=S)oc12 [Example 29, 3-(6-(2-Chlorobenzyl)benzo[d]thiazol-2-yl)-8-methoxy-2-thioxo-2,3-dihydro-4H-pyrido[2,3-e][1,3]oxazin-4-one] | ≥ 20 | < 2 | ≥ 20 |
| COc1ccnc2c(=O)n(-c3nc4ccc(Oc5cncc(C(F)(F)F)c5)cc4s3)c(=O)oc12 [Example 2, 8-Methoxy-3-(6-((5-(trifluoromethyl)pyridin-3-yl)oxy)benzo[d]thiazol-2-yl)-2H-pyrido[2,3-e][1,3]oxazine-2,4(3H)-dione] | 2 to 20 (≈ 4.09 to 40.9 µM) | < 2 | 2 to 20 (≈ 4.09 to 40.9 µM) |
| COc1ccnc2c(=O)n(-c3nc4ccc(Sc5ccccc5)cc4s3)c(=S)oc12 [Example 27, 8-Methoxy-3-(6-(phenylthio)benzo[d]thiazol-2-yl)-2-thioxo-2,3-dihydro-4H-pyrido[2,3-e][1,3]oxazin-4-one] | 2 to 20 (≈ 4.43 to 44.3 µM) | < 2 | ≥ 20 |
| COc1ccnc2c(=O)n(-c3nc4ccc(Oc5cccc(F)c5)cc4s3)c(=S)oc12 [Example 11, 3-(6-(3-Fluorophenoxy)benzo[d]thiazol-2-yl)-8-methoxy-2-thioxo-2,3-dihydro-4H-pyrido[2,3-e][1,3]oxazin-4-one] | 2 to 20 (≈ 4.41 to 44.1 µM) | 2 to 20 (≈ 4.41 to 44.1 µM) | 2 to 20 (≈ 4.41 to 44.1 µM) |
| COc1ccccc1Oc1ccc2nc(-n3c(=S)oc4c(OC)ccnc4c3=O)sc2n1 [Example 42, 8-methoxy-3-(5-(2-methoxyphenoxy)thiazolo[5,4-b]pyridin-2-yl)-2-thioxo-2,3-dihydro-4H-pyrido[2,3-e][1,3]oxazin-4-one] | ≥ 20 | 2 to 20 (≈ 4.29 to 42.9 µM) | ≥ 20 |
